Assay: xn = mol fraction of the nth substance listed

OCCOCCOCCO + O
Conditions	viscosity [mPa·s]
293.15 K, 100 kPa, x2 = 0.05	46.03
293.15 K, 100 kPa, x2 = 0.094	44.8
298.15 K, 100 kPa, x2 = 0.014	37.14
298.15 K, 100 kPa, x2 = 0.094	34.66
298.15 K, 101.33 kPa, x1 = 0.0824	3.65
298.15 K, 101.33 kPa, x1 = 0.1678	8.7
298.15 K, 101.33 kPa, x1 = 0.35	19.77
303.15 K, 100 kPa, x2 = 0.05	28.19
303.15 K, 100 kPa, x2 = 0.094	27.25
303.15 K, 100 kPa, x2 = 0.112	27.95
303.15 K, 101 kPa, x1 = 0.05023	2.114
303.15 K, 101 kPa, x1 = 0.1004	4.102
303.15 K, 101 kPa, x1 = 0.1518	6.604
303.15 K, 101 kPa, x1 = 0.2006	9.27
303.15 K, 101 kPa, x1 = 0.2528	11.91
303.15 K, 101 kPa, x1 = 0.2995	14.77
303.15 K, 101 kPa, x1 = 0.3928	18.53
303.15 K, 101 kPa, x1 = 0.5013	21.84
303.15 K, 101 kPa, x1 = 0.5995	24.34
303.15 K, 101 kPa, x1 = 0.6648	25.69
303.15 K, 101 kPa, x1 = 0.7981	27.13
303.15 K, 101 kPa, x1 = 0.8445	27.86
303.15 K, 101 kPa, x1 = 0.8998	28.37
303.15 K, 101 kPa, x1 = 0.954	28.74
303.15 K, 101.33 kPa, x1 = 0.0004	0.781
303.15 K, 101.33 kPa, x1 = 0.0008	0.788
303.15 K, 101.33 kPa, x1 = 0.0014	0.798
303.15 K, 101.33 kPa, x1 = 0.0024	0.82
303.15 K, 101.33 kPa, x1 = 0.0056	0.875
303.15 K, 101.33 kPa, x1 = 0.011	0.986
303.15 K, 101.33 kPa, x1 = 0.0317	1.48
303.15 K, 101.33 kPa, x1 = 0.0563	2.254
303.15 K, 101.33 kPa, x1 = 0.0988	4.058
303.15 K, 101.33 kPa, x1 = 0.1954	8.931
303.15 K, 101.33 kPa, x1 = 0.2932	14.1
303.15 K, 101.33 kPa, x1 = 0.3871	18.23
303.15 K, 101.33 kPa, x1 = 0.5032	22.21
303.15 K, 101.33 kPa, x1 = 0.5991	24.2
303.15 K, 101.33 kPa, x1 = 0.6914	26.06
303.15 K, 101.33 kPa, x1 = 0.7941	27.17
308.15 K, 100 kPa, x2 = 0.05	22.55
308.15 K, 100 kPa, x2 = 0.094	21.88
308.15 K, 100 kPa, x2 = 0.112	22.44
308.15 K, 101 kPa, x1 = 0.05023	1.848
308.15 K, 101 kPa, x1 = 0.1004	3.491
308.15 K, 101 kPa, x1 = 0.1518	5.543
308.15 K, 101 kPa, x1 = 0.2006	7.668
308.15 K, 101 kPa, x1 = 0.2528	9.722
308.15 K, 101 kPa, x1 = 0.2995	11.99
308.15 K, 101 kPa, x1 = 0.3928	14.94
308.15 K, 101 kPa, x1 = 0.5013	17.51
308.15 K, 101 kPa, x1 = 0.5995	19.48
308.15 K, 101 kPa, x1 = 0.6648	20.58
308.15 K, 101 kPa, x1 = 0.7981	21.8
308.15 K, 101 kPa, x1 = 0.8445	22.32
308.15 K, 101 kPa, x1 = 0.8998	22.65
308.15 K, 101.33 kPa, x1 = 0.0004	0.707
308.15 K, 101.33 kPa, x1 = 0.0008	0.714
308.15 K, 101.33 kPa, x1 = 0.0014	0.725
308.15 K, 101.33 kPa, x1 = 0.0024	0.736
308.15 K, 101.33 kPa, x1 = 0.0056	0.787
308.15 K, 101.33 kPa, x1 = 0.011	0.877
308.15 K, 101.33 kPa, x1 = 0.0317	1.298
308.15 K, 101.33 kPa, x1 = 0.0563	1.934
308.15 K, 101.33 kPa, x1 = 0.0988	3.33
308.15 K, 101.33 kPa, x1 = 0.1954	7.273
308.15 K, 101.33 kPa, x1 = 0.2932	11.27
308.15 K, 101.33 kPa, x1 = 0.3871	14.47
313.15 K, 100 kPa, x2 = 0.014	19.23
313.15 K, 100 kPa, x2 = 0.05	18.39
313.15 K, 100 kPa, x2 = 0.094	17.83
313.15 K, 101 kPa, x1 = 0.05023	1.618
313.15 K, 101 kPa, x1 = 0.1004	3.012
313.15 K, 101 kPa, x1 = 0.1518	4.689
313.15 K, 101 kPa, x1 = 0.2006	6.418
313.15 K, 101 kPa, x1 = 0.2528	8.113
313.15 K, 101 kPa, x1 = 0.2995	9.888
313.15 K, 101 kPa, x1 = 0.3928	12.22
313.15 K, 101 kPa, x1 = 0.5013	14.27
313.15 K, 101 kPa, x1 = 0.5995	15.84
313.15 K, 101 kPa, x1 = 0.6648	16.75
313.15 K, 101 kPa, x1 = 0.7981	17.67
313.15 K, 101 kPa, x1 = 0.8445	18.12
313.15 K, 101 kPa, x1 = 0.8998	18.44
313.15 K, 101 kPa, x1 = 0.954	18.69
318.15 K, 100 kPa, x2 = 0.014	15.91
318.15 K, 100 kPa, x2 = 0.05	15.2
318.15 K, 100 kPa, x2 = 0.094	14.73
318.15 K, 100 kPa, x2 = 0.112	15.13
318.15 K, 101 kPa, x1 = 0.05023	1.455
318.15 K, 101 kPa, x1 = 0.1004	2.621
318.15 K, 101 kPa, x1 = 0.1518	4.011
318.15 K, 101 kPa, x1 = 0.2006	5.421
318.15 K, 101 kPa, x1 = 0.2528	6.753
318.15 K, 101 kPa, x1 = 0.2995	8.235
318.15 K, 101 kPa, x1 = 0.3928	10.07
318.15 K, 101 kPa, x1 = 0.5013	11.79
318.15 K, 101 kPa, x1 = 0.5995	13.02
318.15 K, 101 kPa, x1 = 0.6648	13.73
318.15 K, 101 kPa, x1 = 0.7981	14.53
318.15 K, 101 kPa, x1 = 0.8445	14.92
318.15 K, 101 kPa, x1 = 0.8998	15.2
318.15 K, 101 kPa, x1 = 0.954	15.4
323.15 K, 100 kPa, x2 = 0.014	13.33
323.15 K, 100 kPa, x2 = 0.05	12.7
323.15 K, 100 kPa, x2 = 0.094	12.32
323.15 K, 100 kPa, x2 = 0.112	12.64
323.15 K, 101 kPa, x1 = 0.05023	1.295
323.15 K, 101 kPa, x1 = 0.1004	2.296
323.15 K, 101 kPa, x1 = 0.1518	3.473
323.15 K, 101 kPa, x1 = 0.2006	4.63
323.15 K, 101 kPa, x1 = 0.2528	5.724
323.15 K, 101 kPa, x1 = 0.2995	6.927
323.15 K, 101 kPa, x1 = 0.3928	8.441
323.15 K, 101 kPa, x1 = 0.5013	9.827
323.15 K, 101 kPa, x1 = 0.5995	10.84
323.15 K, 101 kPa, x1 = 0.6648	11.45
323.15 K, 101 kPa, x1 = 0.7981	12.09
323.15 K, 101 kPa, x1 = 0.8445	12.41
323.15 K, 101 kPa, x1 = 0.8998	12.64
323.15 K, 101 kPa, x1 = 0.954	12.8

From the CheMixHub viscosity set
